Entries after “also recorded” stand apart in the source; their conditions may differ. Like-named read-outs stand apart in the source and are kept apart here.
Tests used:
[1] = set-up: method as in earlier work; details: fixed in the previously published model; cited from earlier work
clinical = details: human, in vivo
[2] = Final atazanavir model applied to atazanavir-only data (without ritonavir) of the ACTG A5231 study
Procedure: Atazanavir was administered with or without rifampicin in three periods: 300 mg BID for 8 days (period 1), 300 mg BID with rifampicin 600 mg QD for 11 days (period 2) and 400 mg BID with rifampicin 600 mg QD for 8 days (period 3).[30] Pharmacokinetic sampling was conducted at the end of each period, with blood collected 15 min predose and at 1‐, 2‐, 3‐, 4‐, 5‐, 6‐, 8‐, 10‐, 12‐, and 24‐h postdose. Plasma samples were analysed at the University of Alabama using HPLC with UV detection (LLOQ 0.025 mg/L).[30]
The final atazanavir model, developed with DERIVE data, was applied to the A5231 dataset. We made the following adjustment to our model to account for the differences between the two studies.
All fixed parameters are estimates from DERIVE study population.

[3] = Effect-compartment model of intracellular PBMC concentrations, DERIVE study; format: in vivo, human; details: for Equilibration half‐life, t 1/2 (plasma to PBMC) / half-life / Kp: PBMC effect compartment, estimate (95% CI); for half-life / Kp: human, oral; for half-life: PBMC, read-out: Equilibration half‐life, t 1/2 (plasma to PBMC) (converted); for Kp: read-out: Pseudo‐partition coefficient, PPC (ratio of drug in PBMC to plasma)
Procedure: Pharmacokinetic sampling was conducted over four visits. […] The rifampicin dose was increased to 1200 mg once daily (QD) for 1 week. […] Dolutegravir was maintained for an additional 2 weeks. […] Blood samples were centrifuged and stored at -80 °C prior to shipment and assay at the University of Cape Town, where drug concentrations were measured using high-performance liquid chromatography with tandem mass spectrometry (HPLC MS/MS). […] Atazanavir and ritonavir pharmacokinetic models were separately developed using […] data. We tested one- and two-compartment disposition models with linear elimination, and delayed absorption modelled by a lag time or series of transit compartments. PBMC concentrations were modelled using a hypothetical effect compartment connected to the central compartment of the plasma model. An equilibration half-life (t1/2) and a pseudopartition coefficient (PPC) were used to parameterize the rate of drug entry into the PBMC compartment and its accumulation ratio between the PBMC and plasma, respectively (Figure S1).

HIV‐1 = details: against HIV‐1; cited from earlier work
[4] = Population pharmacokinetic model of plasma atazanavir and ritonavir concentrations, DERIVE study (ATV/r with or without rifampicin); details: for Fold‐change in CL for ATV/r BID + RIF: ATV/r 300/100 mg BID with rifampicin; for Vd / bioavailability / clearance: human, plasma, oral; for Fold‐change in CL for ATV/r QD + RIF: rifampicin 600 mg QD added to ATV/r; for Effect of increasing rifampicin dose on clearance, bioavailability / pharmacokinetics: rifampicin 1200 mg QD vs 600 mg QD, ATV/r BID
plasma proteins = details: cited from earlier work
[5] = in vivo; cited from earlier work
[6] = estimate (95% CI), listed as atazanavir
[7] = Inter compartmental clearance, typical participant 67 kg, fat‐free mass 42 kg, estimate (95% CI)
[8] = typical participant 67 kg, fat‐free mass 42 kg, estimate (95% CI)

Structure (SMILES): CO[C@H]1/C=C/O[C@@]2(C)Oc3c(C)c(O)c4c(O)c(c(/C=N/N5CCN(C)CC5)c(O)c4c3C2=O)NC(=O)/C(C)=C\C=C\[C@H](C)[C@H](O)[C@@H](C)[C@@H](O)[C@@H](C)[C@H](OC(C)=O)[C@@H]1C [rifampicin]
- Unbound fraction of rifampicin, fu [1]: 0.2 (fixed) fraction
- BOV in MTT (estimate (95% CI)): 46.8 (40.0 – 56.8) % CV
- BOV in ka (estimate (95% CI)): 104 (85.3 – 136) % CV
- Between occasion variability (BOV) in F (estimate (95% CI)): 22.0 (17.9 – 26.3) % CV
- Between subject variability in clearance (estimate (95% CI)): 27.7 (22.1 – 35.2) % CV
- Mean absorption transit time, MTT (estimate (95% CI)): 0.502 (0.447 – 0.558) h
- Transit compartments, NN (estimate (95% CI)): 20.3 (15.8 – 25.9) n
- Bioavailability, F (human, in vivo): 1 (fixed) fraction
- Km (clinical): 4.9 µg/mL
- Vd (clinical): 44.7 L
- clearance (clinical): 550 mL/min

Structure (SMILES): COC(=O)N[C@H](C(=O)N[C@@H](Cc1ccccc1)[C@@H](O)CN(Cc1ccc(-c2ccccn2)cc1)NC(=O)[C@@H](NC(=O)OC)C(C)(C)C)C(C)(C)C [Atazanavir, atazanavir]
- Fold-change in CL due to absence of ritonavir ([2]; A5231 all PK visits vs ATV/r without rifampicin (DERIVE visit 1), estimate (95% CI)): 2.13 (1.88 – 2.34) -fold
- BOV in F ([2]; human, in vivo): 58.3 (46.4 – 73.5) % CV
- BOV in MTT ([2]; human, in vivo): 48.1 (36.9 – 63.4) % CV
- Between occasion variability (BOV) in k a ([2]; human, in vivo): 101 (fixed) % CV
- Between subject variability in clearance ([2]; human, in vivo): 18.8 (13.7 – 24.4) % CV
- Change in F with rifampicin ([2]; human, in vivo): -55.3 (-64.0 – -46.2) %
- Change in ka with rifampicin ([2]; human, in vivo): -70.8 (fixed) %
- Clearance, CL ([2]; human, in vivo): 7.55 (fixed) L/h
- MTT longer in A5231 compared to DERIVE ([2]; human, in vivo): 2.5 ‐fold
- Mean absorption transit time, MTT ([2]; human, in vivo): 1.38 (1.15 – 1.61) h
- Reduction in bioavailability when rifampicin was coadministered ([2]; human, in vivo): 55%
- Transit compartments, NN ([2]; human, in vivo): 10 (fixed) n
- Vd ([2]; human, in vivo): 77.3 L
- Volume of distribution (peripheral compartment) ([2]; human, in vivo): 48.9 (fixed) L
- bioavailability ([2]; human, in vivo): 100%
- clearance ([2]; human, in vivo): 58.5 mL/min
- Equilibration half‐life, t 1/2 (plasma to PBMC) [3]: 0.963 (0.546‐1.51) h
- Effect of rifampicin on PBMC equilibration t 1/2 and PPC (intracellular accumulation) ([3]; addition of rifampicin to the regimen): did not affect the ratio of atazanavir concentration between PBMCs and plasma; also recorded: neither of which were affected; also recorded: does not affect the intracellular accumulation of atazanavir
- half-life [3]: ~60 min
- Kp [3]: 0.653
- Protein‐adjusted in vitro 90% inhibitory concentration (PA‐IC90) (HIV‐1): 0.014 mg/L
- Fold‐change in CL for ATV/r BID + RIF ([4]; estimate (95% CI)): 2.03 (1.82‐2.25) ‐fold
- Fold‐change in CL for ATV/r BID + RIF [4, 6]: 2 ‐fold
- Clearance, CL ([4]; ATV/r 300/100 mg QD without rifampicin, typical participant 67 kg, fat‐free mass 42 kg, typical estimate (95% CI)): 7.57 (6.42‐9.06) L/h
- Effect of doubling ATV/r dosing frequency on bioavailability ([4]; ATV/r BID with standard dose rifampicin): restored atazanavir bioavailability
- Effect of TDF on clearance and bioavailability ([4]; co-medication tenofovir disoproxil fumarate): affected neither
- BOV in F ([4]; estimate (95% CI)): 48.2 (40.7‐53.6) % CV
- BOV in MTT ([4]; estimate (95% CI)): 59.4 (49.3‐73.6) % CV
- Between occasion variability (BOV) in k a ([4]; estimate (95% CI)): 97.9 (80.8‐125) % CV
- Between subject variability in clearance ([4]; estimate (95% CI)): 27.6 (19.7‐36.7) % CV
- Between visit variability in clearance ([4]; estimate (95% CI)): 17.5 (14.4‐24.5) % CV
- Change in F for ATV/r QD + RIF ([4]; estimate (95% CI)): −52.5 (−62.5 −41.4) %
- Change in k a due to RIF ([4]; estimate (95% CI)): −67.3 (−76.2 −53.2) %
- Mean absorption transit time, MTT ([4]; estimate (95% CI)): 0.499 (0.429‐0.574) h
- Transit compartments, NN ([4]; fixed in the model): 10 Fixed n
- Vd [4]: 77.5 L
- bioavailability [4]: 100%
- clearance [4, 7]: 52.2 mL/min
- Fold‐change in CL for ATV/r QD + RIF ([4]; estimate (95% CI)): 3.05 (2.67‐3.45) ‐fold
- Fold‐change in CL for ATV/r QD + RIF [4, 6]: 3 ‐fold
- Effect of increasing rifampicin dose on clearance, bioavailability / pharmacokinetics [4]: no significant effect
- Reduction of bioavailability by rifampicin ([4]; rifampicin added to standard ATV/r QD regimen): 53%
- Volume of distribution (peripheral compartment) [4, 8]: 42.1(26.6‐79.0) L
- Bound to plasma proteins (plasma proteins): about 86%

Structure (SMILES): CC(C)c1nc(CN(C)C(=O)N[C@H](C(=O)N[C@@H](Cc2ccccc2)C[C@H](O)[C@H](Cc2ccccc2)NC(=O)OCc2cncs2)C(C)C)cs1 [Ritonavir, ritonavir]
- Equilibration half‐life, t 1/2 (plasma to PBMC) [3]: 1.40 (1.38‐1.63) h
- half-life [3]: ~60 min
- Kp [3]: 1.68
- Time to steady‐state concentrations [5]: about 2 weeks
- Bioavailability decreased to, with rifampicin ([4]; ATV/r QD + rifampicin, relative to ATV/r without rifampicin): 31%
- BOV in F ([4]; estimate (95% CI)): 55.5 (48.1‐63.8) % CV
- BOV in MTT ([4]; estimate (95% CI)): 43.6 (37.7‐51.6) % CV
- Between occasion variability (BOV) in k a ([4]; estimate (95% CI)): 82.3 (67.3‐99.1) % CV
- Between subject variability in clearance ([4]; estimate (95% CI)): 16.4 (12.3‐21.8) % CV
- Change in F for ATV/r BID + RIF ([4]; estimate (95% CI)): −33.3 (−46.6 −10.9) %
- Change in F for ATV/r QD + RIF ([4]; estimate (95% CI)): −68.8 (−75.2 −58.5) %
- Mean absorption transit time, MTT ([4]; estimate (95% CI)): 0.483 (0.428‐0.545) h
- Transit compartments, NN ([4]; estimate (95% CI)): 12.3 (6.64‐17.7) n
- Vd [4]: 55.4 L
- bioavailability [4]: 100%
- clearance ([4]; Clearance, CL, ATV/r 300/100 mg QD without rifampicin, typical participant 67 kg, fat‐free mass 42 kg, typical estimate (95% CI)): 161 mL/min
- clearance [4, 7]: 26 mL/min
- Effect of increasing rifampicin dose on clearance, bioavailability / pharmacokinetics [4]: no further effect
- Volume of distribution (peripheral compartment) [4, 8]: 70.1 (39.7‐125) L

— PMC12648368 (British Journal of Clinical Pharmacology, 2025)
